Literature values, collected in PMC5594551, “Heterogeneous drug penetrance of veliparib and carboplatin measured in triple negative breast tumors” (Breast Cancer Research : BCR, 2017).

What was measured:
HCC70 = settings: ref [24]; cited from earlier work
MDA-MB-436 = settings: MDA-MB-436, BRCA1-mutated; ref [24]; cited from earlier work

SMILES: O=C(c1cc(Cc2n[nH]c(=O)c3ccccc23)ccc1F)N1CCN(C(=O)C2CC2)CC1 [olaparib]
- Sensitivity in vitro (HCC70): sensitive
- Sensitivity in vitro (MDA-MB-436): sensitivity
